These results are taken from US11541029B2, “High penetration compositions and their applications” (Techfields Pharma Co., Ltd., priority 2008, dated 2023).

Data set [1] concerns Human breast cancer cells (BCAP-37). Nature of the data set: Human breast cancer xenograft in nude mice. An outline of the steps: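 BCAP-37 tumour tissue (2-3 mm^3 per mouse) implanted subcutaneously in BALB nude mice, 12 groups of 7. Test salts given as 50 μl of 5% aqueous solution (2.5 mg compound per dose).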
Background: In xenograft studies the graft and the host belong to different species.

The test system of data set [2] is autologous blood clots injected in femoral vein (pulmonary thrombus). Description: Anti-thrombosis activity, autologous blood clots in rabbits. The conditions noted are these: 50 mg/kg topically to the back twice per day, 5 days. It counts as in vivo, Chinese White rabbits. On the procedure: Eighteen Chinese White rabbits weighing between 3.0 and 3.5 kg (aged 6-7 months) were selected and divided into three groups (control, P-1 and […] groups, n=6). One hour before the experiment, thrombi were made by aspirating venous blood (1 ml) into a sterilized bottle to clot. To avoid fragmentation and slow lysis, the autologous blood clots were stabilized in temperature-controlled (70° C.) distilled water for 10 min. After anesthesia, the femoral veins were exposed and distally isolated, and autologous blood clots (0.05 g/kg) were injected through an indwelling catheter (20GA), which had been placed in the femoral vein isolated earlier. 50 mg/kg of diethylaminoethyl acetylsalicylate.HCl salt (P-1, 10% in 25% ethanol) and diethylaminoethyl acetylsalicylsalicylate.HCl salt (P-59, 10% in 25% ethanol) were topically applied to the back of the rabbits twice per day. After 5 days, rabbits were euthanized with an excessive intravenous injection of sodium amobarbital (60 mg/kg). The lungs and hearts were isolated to observe whether thrombi were present in the pulmonary arteries. The lungs were immersed in 10% formalin for 24 h. Consecutive transverse sections along the obstructed pulmonary arteries were paraffin-embedded and stained with hematoxylin-eosine. […]

For data set [3], the system named is carotid artery thrombosis. Description: Thrombosis/stroke induced by electrical stimulation of carotid artery. It counts as in vivo, rats (Spragu Dawley). On the procedure:
Thrombosis was induced by electrical stimulation (1 mA for 3 minutes) of the carotid artery in rats by using a thrombosis formation instrument (YLS-14A, Shandong Academy of Medical Sciences, Shandong, China). […] In group B, 100 mg/kg of diethylaminoethyl acetylsalicylate.HCl salt (10% in water) was applied to the shaved back skin of the rats (˜9 cm^2, fur was cut off) 2 hour before the operation and 1 hour after the operation, then 50 mg/kg of the HPC was applied to the back of the rats twice per day. In group C, 50 mg/kg of diethylaminoethyl acetylsalicylate.HCl was applied to the back of the rats twice per day starting from 24 hours after the operation. The recovery of motor functions of rats was evaluated every day.

The test system of data set [4] is fungal diseases and insects of peach trees. Description: Antiviral, anti-fungus, anti-insect activity in peach trees. It counts as in vivo. How it is done: 240 Peach trees were divided into 4 groups. All field operations concerning land preparation and the uses of fertilizers were same for all groups. Group A (n=60) was control group with no chemical treatments. Group B (n=60) was normal fungicides and insecticides-treated group. Group C (n=60) was treated with N,N-diethylaminoethyl acetylsalicylate plus some insecticides. Group D (n=60) was N,N-diethylaminoethyl acetylsalicylate and N,N-diethylaminoethyl jasmonate.citric acid treated group. In group A, Peach Leaf Curl, Peach Scab, Brown Rot, Black Knot and other fungal diseases were found and different scale insects, Shothole Borer, Peach tree Borer, Lesser Peachtree Borer, fruit Moth and other diseases and insects were found. No any good (edible) fruits were harvested. In group B, 100 g of ferbam [iron tris(dimethyldithiocarbamate)] […] Group C was N,N-diethylaminoethyl acetylsalicylate-treated group. 50 g of N,N-diethylaminoethyl acetylsalicylate in 50 kg of water was applied to the group C Peach trees on November 15, March 1, March 20, and June 20, 50 g of N,N-diethylaminoethyl acetylsalicylate, 125 g of Malathion 50% EC, 125 g of 1-naphthyl methylcarbamate 50% WP and 60 g of thiophanate-methyl 50% WP in 50 kg of water was applied to the group C peach trees on April 1, April 20, May 10, and May 30. Yield 3000 kg of good (edible) peaches. […]

For data set [5], the system named is MPTP-induced Parkinson's disease mice. Nature of the data set: Anti-Parkinson's disease activity in MPTP-induced mice. The conditions noted are these: MPTP mice, 30 mg/kg, n = 10.
Experimental: Group A mice were ip injected 0.4% sodium carboxymethylcellulos (15 ml/kg per day) for 7 days. Group B and C mice were ip injected N-methyl-4-phenyl-1,2,3,6-tetrahydropyridine (MPTP, 30 mg/kg per day) for 7 days. The mice were divided into 2 groups. […] All mice were killed after the last treatment and the brain tissues were quickly freezed at −80° C. […] The contents of malondialdehyde (MDA) in the SN were measured with the thiobarbituric acid-reaction to indicate the LPO, and contents of glutathione (GSH) in the substantia nigra (SN) were based on the dithionitrobenzonic acid (DTNB) determination. The contents of GABA and Glu in the striatum and SN were shown by high performance amino acid auto-analyser.
Setting [6] is: group B: 100 mg/kg 2 hour before and 1 hour after operation, then 50 mg/kg twice per day.
Where [7] appears, read: group C: 50 mg/kg twice per day starting 24 hours after the operation.

Regarding `CCN(CC)CCOC(=O)c1ccccc1OC(C)=O.Cl` [P-1, diethylaminoethyl acetylsalicylate.HCl salt], in data set [1] (50 μl of 5% topically every 8 hours), the “tumor Size at day 42” value is 140 ± 50 mm^3. Also, in data set [1] (in vivo), the “Weight of mice at day 42” value is given as 24 ± 3. The “lung tissue and vascular walls (histology)” value in data set [2] was “both lung tissue and vascular walls were normal”. In addition, in data set [3] (setting [6]), the “Stroke-free rats (2 hours)” value was 8/10, the “Stroke-free rats (1 day)” value is reported as 9/10 and the “Stroke-free rats (7 days)” value is on record as 10/10. In data set [3] (setting [7]), the “Stroke-free rats (3 hrs)” value is reported as 0/10, the “Stroke-free rats (2 day)” value is recorded as 4/10, the “Stroke-free rats (7 day)” value was 9/10 and the “Stroke-free rats (14 days)” value is on record as 10/10. Further, in data set [3] (setting [7]), the “Weight Loss (3 days)” value is reported as −13 +/− 7%, the “Weight Loss (7 days)” value is reported as −7 +/− 4% and the “Weight Loss (14 days)” value is reported as −4 +/− 2%. For the same compound, the bleeding problem entry in data set [3] (post-stroke treatment) is given as “without bleeding problem”. In addition, the “Yield of good (edible) peaches” value in data set [4] (60 trees per group, some insecticides/fungicides co-applied) is on record as 3000 kg. This compound also came in with a harvest dates earlier in data set [4] (groups C and D) of 1 week. In data set [5], the “GABA in Striatum” value is given as 4.9 ± 1.6 μmol/g wet tissue, the “GABA in Substantia nigra” value came out at 4.7 ± 0.5 μmol/g wet tissue, the “GSH in the substantia nigra” value was 143 ± 13 μg/g protein and the “Glu in Striatum” value came to 26.5 ± 2.7. In data set [5], the “Glu in Substantia nigra” value was 29.5 ± 2.4 and the “MDA in the substantia nigra” value came to 14 ± 4 μmol/g protein.
